According to US8404696B2, “Quinazoline-2,4-dione derivative, and medical compositions for the prophylaxis and treatment of cranial nerve disease containing the same” (Shin Poong Pharmaceutical Co., Ltd., priority 2008, dated 2013):

How the values were obtained:
thoracic aorta of rats = experiment: Relaxing effect on thoracic aorta contracted by phenylephrine (organ bath); design: species or system rats of SD species; conditions: 67 μg/mL, phenylephrine 0.5 μM, mean n = 3; for inhibition at 67 µg/mL: Rattus norvegicus, read-out: Relaxation percentage
From the text: After male rats of SD species (250-300 g) were anesthetized by inhalation of ether, their thoracic aortas were extracted and put into a Krebs buffer (mM; NaCl 118, NaHCO3 27.3, KCl 4.8, MgSO4 1.2, KH2PO4 1.0, CaCl2 1.25, glucose 11.1). 2 mm of aortic ring was made under dissecting microscope and cultured in an organ bath to measure the tension of blood vessels. The organ bath was filled with Krebs buffer and saturated with 95% O2, 5% CO2 to maintain dissolved oxygen and physiological pH. Changing of tension was measured by a tension meter (Hugo-sachs, model K30) and recorded by physiological recorder (Coulbourn polygraph). The length of the blood vessels was increased step by step to make 1.0 g of basal tension for 90 minutes. The equilibrated blood vessel was contracted by phenylephrine (0.5 μM). When the contraction furrow reached equilibrium, compounds were added, followed by observation of relaxation response.

[1] = test system: pentylentetrazole (PTZ)-induced convulsion; experiment: Anti-convulsant effect, pentylentetrazole (PTZ) test; assay type: in vivo; conditions: 10 mg/kg intraperitoneally, PTZ 80 mg/kg subcutaneously; for mortality rate / Induction percentage of convulsion: (animals/total); for mortality rate: negative control 70(17/23); for Induction percentage of convulsion: negative control 100(23/23); for Initiation time of convulsion: negative control 5.0 ± 0.7; for Duration of convulsion: negative control 46.7 ± 3.3
Description: An experiment was performed by the method of Ali et al. (Ali, A. et al. 2006, Pharmacological Reports, 58: 242-245). A 10 mg/kg dose of compound was intraperitoneally administered to identify the anti-convulsant effect and the effect was observed (Table 8). Researching the process of activity was performed by the Anti-epileptic Drug Development Program (ADD) of NIH during development of the anti-convulsant drug. One of the assessed items of anti-convulsant activity in the first step of this program is the pentylentetrazole (PTZ) test. […] After 10 mg/kg of the testing drug was administered, assessment was performed by estimating the initiation time of convulsion, duration until convulsion completely disappeared and mortality rate. It was assessed as having an anti-convulsant effect when a single episode of clonic spasm was not shown over 5 seconds on at least one of the 4 laboratory animals after PTZ administration.

[2] = test system: mixed culture of nerve cells-glial cells; experiment: Protecting effect on NMDA-induced nerve cell death (LDH release); assay type: cell-based, ICR mouse; conditions: 100 μM NMDA, LDH release after 24 hours
Description: Isolation and culture of nerve cells were performed by Choi's method (Choi, D. W. 1985, Neurosci. Lett., 58: 293-297). That is, the cortex was isolated in fetus ICR mouse that was 14 days pregnant, and then single cells were obtained from the tissue using pipette. The cells were aliquoted into 2×10^5/well density in a 24-well plate (Falcon) in which glial cells of cerebral cortex had been cultured in an incubator maintained at 37° C. with 5% CO2 for over 3 weeks. The culture medium was supplemented with MEM (minimum essential medium, Sigma), 2 mM glutamine, 21 mM glucose, 26.5 mM bicarbonate, 10% fetal bovine serum (FBS). In 3-5 days after aliquot, 10 μM Ara-C (cytosine arabinoside) was treated to suppress proliferation of neuroglia. And it was treated with 100 μM NMDA and 1 μg/mL or 2 μg/mL of each sample (compound) to induce the death of nerve cells due to excitable toxicity for 20 minutes, in 12-15 days after aliquot. Because of nerve cell death, lactate dehydrogenase (LDH) accumulated in proportion to the number of dead cells. In 24 hours after drug treatment, the amount of dehydrogenase (LDH) released to outside of cells was measured by using an […] measurement kit (CytoTox 96, Promega). After the reaction was completed, the change of absorbance depending on the amount of LDH was measured by using a microplate spectrophotometer.

[3] = test system: middle cerebral artery occlusion (MCAO) model; experiment: Anti-stroke effect in MCAO model, intravenous administration around reperfusion; assay type: in vivo, rats of SD species; conditions: for Inhibitory percentage compared to negative control / Infarcted volume (Mean ± standard deviation): 1 mg/kg iv; for Infarcted volume (Mean ± standard deviation): negative control 0.43 ± 0.02
Description: Male rats of SD species with 290-300 g of body weight were used as laboratory animals, and 8 rats were used in each experiment group. The operation was performed by using the method of Nagasawa et al. (Nagasawa, H. and Gogure, K. 1989, Stroke, 20: 1037-1043).
The rats were anesthetized by Ketamine, and the operation was performed as body temperature was maintained using thermoplate. The cerebral region was incised following the median line of the neck, and the left common carotid artery, internal carotid artery and external carotid artery were separated, taking care not to damage the vagus nerve. The common carotid artery and external carotid artery were ligatured, and a probe was inserted into the internal carotid artery from the branch point of the internal and external carotid arteries. And then the fundus of the middle cerebral artery was occluded by ligature just on the upper side of the insertion region. A probe was made by heating the end of a 4-0 nylon surgical suture (Dafilon, B. Braun, Germany) and cut into 30 mm. The 7-9 mm end of the probe was coated with the mixture of silcon (Xantopren VL plus, Heraeus Kulzer, Germany) and curing agent (Optosyl-Xantopren VL plus, Heraeus Kulzer, Germany), and the thickness was to be 0.3-0.4 mm. After the intervention of the probe insertion and the animals came out of the anesthetic, individuals in which neurological deficit symptom (right direction circling) was observed were included in the ischemia group.
After 3 hours of ischemia, the inserted probe was removed to reperfuse blood circulation. The brain was extracted after 24 hours, followed by histological staining.
The compound 3 was administered at a programmed time before or after insertion of the probe with oral or intravenous administration. TTC (2,3,5-triphenyltetrazolium chloride) staining was performed to estimate the damage of brain tissue by ischemia. Procephalon of the extracted brain was sliced into 2 mm of sequential slice by using brain matrix (ASI instrument, Warren, Mich., USA). The slices were put into 2% of TTC solution and incubated at 37° C. for 60 minutes for staining. The TTC stained brain slice was fixed in 10% of formalin buffer and the front of the each slice was photographed with a digital camera. The infarcted areas (cm^2) that were not stained with deep red in each acquired image were measured using an image analyzer, and total infarcted volume (cm^3) was calculated by multiplying the thickness of the slices
In the experiment, the probe was removed after stoke induction so that circulation was reperfused.

[4] = treatment time 0.5 after reperfusion
[5] = treatment time 1 after reperfusion
[6] = treatment time 2 after reperfusion
[7] = treatment time 4 after reperfusion
[8] = treatment time 6 after reperfusion
[9] = treatment time 12 after reperfusion
[10] = treatment time 18 after reperfusion
[11] = treatment time 24 after reperfusion
[12] = treatment time −0.5 after reperfusion

Row | SMILES | inhibition at 67 µg/mL (thoracic aorta of rats) [%] | mortality rate [1] | Induction percentage of convulsion [1] | Initiation time of convulsion [1] [min] | Duration of convulsion [1] [min] | Inhibitory effect of cell death by NMDA-induced excitable neurotoxicity ([2]; 1 μg/ml compound) [%] | Inhibitory effect of cell death by NMDA-induced excitable neurotoxicity ([2]; 2 μg/ml compound) [%] | also measured
1 | CC(=O)N(CCCCNCCCn1c(=O)[nH]c2ccccc2c1=O)CCCNC(=O)c1ccc(O)cc1 [Compound 19, N-[3-(acetyl-{4-[3-(2,4-dioxo-1,4-dihydro-2H-quinazolin-3-yl)propylamino]butyl}amino)propyl]-4-hydroxybenzamide] | 11.8 | 0(0/6) % | 50(3/6) % | 38.7 ± 1.5 | 1.8 ± 2.7 | 40.1 | 45.2 | 
2 | O=c1[nH]c2ccccc2c(=O)n1CCCNCCCCN(CCCn1c(=O)[nH]c2ccccc2c1=O)Cc1ccccc1 [Compound 9, 3-{3-[4-({N-[3-(2,4-dioxo-1,4-dihydro-2H-quinazolin-3-yl)propyl]-N-benzyl}amino)butylamino]propyl}-1H-quinazoline-2,4-dione] |  | 67(4/6) % | 100(6/6) % | 4.4 ± 0.7 | 39.8 ± 10.3 | 21.4 | 33.3 | Relaxation percentage (thoracic aorta of rats): 95.5%
3 | O=C(c1ccccc1)N(CCCCNCCCn1c(=O)[nH]c2ccccc2c1=O)CCCn1c(=O)[nH]c2ccccc2c1=O [Compound 10, N-[3-(2,4-dioxo-1,4-dihydro-2H-quinazolin-3-yl)propyl]-N-{4-[3-(2,4-dioxo-1,4-dihydro-2H-quinazolin-3-yl)propylamino]butyl}benzamide] | 4.9 | 17(1/6) % | 100(6/6) % | 5.8 ± 1.4 | 49.9 ± 5.4 | 15.4 | 13.7 | 
4 | C[C@]12N[C@H](Cc3ccccc31)c1ccccc12 [MK-801] |  |  |  |  |  | 49.0 | 63.6 | Inhibitory percentage compared to negative control [3, 4]: 50.2%; Infarcted volume (Mean ± standard deviation) [3, 4]: 0.21 ± 0.04 cm^3; Inhibitory percentage compared to negative control [3, 5]: 27.0%; Infarcted volume (Mean ± standard deviation) [3, 5]: 0.31 ± 0.02 cm^3; Inhibitory percentage compared to negative control [3, 6]: 22.8%; Infarcted volume (Mean ± standard deviation) [3, 6]: 0.33 ± 0.02 cm^3; Inhibitory percentage compared to negative control [3, 7]: 34.4%; Infarcted volume (Mean ± standard deviation) [3, 7]: 0.28 ± 0.08 cm^3; Inhibitory percentage compared to negative control [3, 8]: 13.3%; Infarcted volume (Mean ± standard deviation) [3, 8]: 0.37 ± 0.06 cm^3; Inhibitory percentage compared to negative control [3, 9]: 8.7%; Infarcted volume (Mean ± standard deviation) [3, 9]: 0.39 ± 0.06 cm^3; Inhibitory percentage compared to negative control [3, 10]: 7.4%; Infarcted volume (Mean ± standard deviation) [3, 10]: 0.40 ± 0.08 cm^3; Inhibitory percentage compared to negative control [3, 11]: 8.8%; Infarcted volume (Mean ± standard deviation) [3, 11]: 0.39 ± 0.05 cm^3; Inhibitory percentage compared to negative control [3, 12]: 55.4%; Infarcted volume (Mean ± standard deviation) [3, 12]: 0.19 ± 0.06 cm^3; Treatment time after reperfusion giving the maximum effect ([3]; positive control, iv): 30 min
5 | CC(=O)N(CCCCNCCCNC(=O)c1ccc(O)cc1)CCCn1c(=O)[nH]c2ccccc2c1=O [Compound 20, N-[3-(4-{acetyl-[3-(2,4-dioxo-1,4-dihydro-2H-quinazolin-3-yl)propyl]amino}butylamino)propyl]-4-hydroxybenzamide] | 15.2 | 0(0/6) % | 50(3/6) % | 44.7 ± 11.0 | 0.9 ± 1.9 | 36.4 | 42.5 | 
6 | CS(=O)(=O)N(CCCCN(CCCn1c(=O)[nH]c2ccccc2c1=O)S(C)(=O)=O)CCCn1c(=O)[nH]c2ccccc2c1=O [Compound 18, N-[3-(2,4-dioxo-1,4-dihydro-2H-quinazolin-3-yl)propyl]-N-(4-{[3-(2,4-dioxo-1,4-dihydro-2H-quinazolin-3-yl)propyl]methansulfonylamino}butyl)methansulfonamide] | 42.4 | 0(0/6) % | 83(5/6) % | 19.1 ± 8.4 | 5.2 ± 3.4 | 44.4 | 21.0 | 
